US20250109139A1, “TRICYCLIC COMPOUND, AND PREPARATION METHOD THEREFOR AND USE THEREOF” (SHANGHAITECH UNIVERSITY, priority 2022, published 2025)
Like-named read-outs stand apart in the source and are kept apart here.

Assays:
dopamine D2 receptors [1] = molecular target: T1, dopamine D2 receptors (Homo sapiens (Human), UniProt P14416); assay: Dopamine D2 receptor Gαi1 BRET (G protein trimer dissociation); format: cell-based; details: for Emax: relative to endogenous ligand dopamine, read-out: Gαi1 BRET Emax % ± SEM
T1 sequence (P14416 whole entry): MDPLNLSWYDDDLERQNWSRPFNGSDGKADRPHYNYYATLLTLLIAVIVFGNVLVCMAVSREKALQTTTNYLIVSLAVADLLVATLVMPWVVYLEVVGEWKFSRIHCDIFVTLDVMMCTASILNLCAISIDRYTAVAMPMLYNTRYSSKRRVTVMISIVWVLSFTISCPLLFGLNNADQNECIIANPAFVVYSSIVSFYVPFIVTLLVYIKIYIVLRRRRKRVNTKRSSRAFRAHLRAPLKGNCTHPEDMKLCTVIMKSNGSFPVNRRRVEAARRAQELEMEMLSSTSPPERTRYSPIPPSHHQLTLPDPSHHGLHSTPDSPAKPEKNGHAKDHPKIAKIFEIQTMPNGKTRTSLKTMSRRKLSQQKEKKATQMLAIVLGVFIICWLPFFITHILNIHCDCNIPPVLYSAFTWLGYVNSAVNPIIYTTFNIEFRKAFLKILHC
Outline: (§1)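 G-protein assay: cells co-transfected with D2 receptor, Gαi1-Rluc, Gβ3 and Gγ9-GFP (1 μg each); β-arrestin2 assay: D2-Rluc, GRK2 and GFP2-β-arrestin2 co-transfected. Cells were reseeded after one day and tested on day three. Drug dilution series were added in duplicate with coelenterazine 400a (5 μM final), and the BRET signal was read.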

dopamine D2 receptors [2] = molecular target: T1, dopamine D2 receptors; assay: Dopamine D2 receptor β-arrestin2 BRET (recruitment); format: cell-based; details: for Emax: relative to endogenous ligand dopamine, read-out: β-arrestin2 BRET Emax % ± SEM
Outline: as §1

[3] = Pharmacokinetics in SD rats, single dose intragastric and intravenous; format: in vivo; details: for Cmax / half-life / Vd / AUC(0-t) / clearance / MRT / bioavailability / Tmax: male, rat, plasma; for half-life: read-out: Elimination half-life t1/2 (converted); for Vd: read-out: Apparent volume of distribution Vdss; for AUC(0-t): read-out: Area under the drug-time curve AUC0-t; for clearance: read-out: Clearance CL; for MRT: read-out: Mean residence time MRT; for bioavailability: read-out: Bioavailability F; for Tmax: read-out: Time to peak concentration tmax
Description: Testing of pharmacokinetic properties of compounds administered in a single dose to SD rats by intragastric administration and intravenous injection
After the compound was administered in a single dose to male SD rats, blood samples were collected at different time points. The concentration of the compound in the plasma of the rats was determined by LC-MS/MS and the relevant pharmacokinetic parameters were calculated to investigate the pharmacokinetics of the compound in rats.
Male SD rats were provided by Suzhou JOINN Laboratories Co., Ltd. SD rats were fasted with free access to water for 12 to 14 hours one day before administration, and were fed 4 hours after administration.
For each compound, the […] were divided into two groups: intravenous injection and intragastric administration, with 3 rats in each group. For both intravenous injection (administered at a dose of 3 mg/kg and a concentration of 0.6 mL/kg) and intragastric administration (administered at a dose of 10 mg/kg and a concentration of 1 mL/kg), 5% DMSO+5% Solutol+90% saline was used as the vehicle.
Sample collection: 0.10 mL of blood was collected from the orbit of each animal in IV/PO groups each time at 5 minutes, 15 minutes, 30 minutes, 1 hour, 2 hours, 4 hours, 6 hours, 8 hours, and 24 hours after administration of the test compound, and anticoagulated with EDTA-K2. Blood samples were placed on ice after collection, and plasma was separated by centrifugation within 30 minutes (centrifugation conditions: 5000 rpm, 10 minutes, 4° C.). The collected plasma was stored at −80° C. before analysis.
Data processing: The data acquisition and control system software was Analyst 1.5.1 software (Applied Biosystem). The peak integration method of chromatographic samples was automatic integration; the ratio of the peak area of the sample to the peak area of the internal standard was used as an index for regression with the concentration of the sample. […] Pharmacokinetic parameters were analyzed with a non-compartmental model using WinNonlin Professional v6.3 (Pharsight, USA). Cmax was the measured maximum plasma concentration, the area under the plasma concentration-time curve AUC(0→t) was calculated by the trapezoidal method, and tmax was the time to peak plasma concentration after administration. Experimental data were presented as “Mean±SD” (n≥3) or “Mean” (n=2).

[4] = Brain permeability test, single intraperitoneal dose in C57 male mice; format: in vivo; details: intraperitoneal 5 mg/kg; for concentration at 0.5 h / concentration at 2 h / Kp at 0.5 h / Kp at 2 h / Kp at 4 h / Kp / concentration at 4 h / AUC: male, C57, mouse; for Kp at 0.5 h / Kp at 2 h / Kp at 4 h / Kp: brain/plasma; for Kp at 0.5 h / Kp at 2 h / Kp at 4 h / Kp / AUC: ip; for Kp at 0.5 h: read-out: 0.5 h ratio (brain/plasma); for Kp at 2 h: read-out: 2.0 h ratio (brain/plasma); for Kp at 4 h: read-out: 4.0 h ratio (brain/plasma); for Kp: read-out: AUC ratio (brain/plasma)
Description: Using the same method as that in the pharmacokinetic experiment, 0.030 mL of blood was collected from the orbit of each animal at 0.5 hours, 2.0 hours, and 4.0 hours, and anticoagulated with EDTA-K2. Blood samples were placed on ice after collection, and plasma was separated by centrifugation within 30 minutes (centrifugation conditions: 5000 rpm, 10 minutes, 4° C.). The collected plasma was stored at −80° C. before analysis. […] The homogenate was stored at −80° C. before analysis. Drug concentrations in plasma and brain tissues were analyzed by LC/MS/MS for comparison.

[5] = system: MK801-induced hyperlocomotion in mice; assay: Open field test, MK801-induced hyperlocomotion (schizophrenia-like model); format: in vivo, C57B6 male mice; details: for inhibition of MK801-induced hyperlocomotion in mice (in words): at different doses
Description: Experimental method: The experimental animals were C57B6 male mice, n=8 in each group. In this model, C57B6 mice were used as experimental animals. Hyperlocomotion of the mice in open field was induced by acute injection of a NMDA antagonist MK801, and modeled to test the inhibitory effect of different compounds on hyperlocomotion phenotype induced by MK801 All mouse behavior experiments were carried out during the light period. The whole process was recorded by the camera, and locomotive data were tracked and analyzed by behavioral tracking software. The compounds were administered intraperitoneally. Immediately after the injection, the mice entered the open field and their movement trajectories were recorded by the camera. After 30 minutes, the mice received 0.2 mg/kg of MK801 by intraperitoneal injection and returned to the open field immediately after administration, and the movement trajectories were further recorded for 120 minutes. The accumulative travelled distance of the mice was counted in a 5-minute bin. Data statistics were performed using Student-t-test analysis, *p<0.05, **p<0.01, ***p<0.001, ****p<0.0001. The total travelled distance of the mice in the 0-45 minute interval after administration of the compounds of the present disclosure at different doses in combination with MK801 (0.2 mg/kg) is shown in Table 10.

[6] = read-out: Gαi1 BRET pEC50 ± SEM (converted)
[7] = unit printed only in Cariprazine cell, read-out: Gαi1 BRET EC50
[8] = unit printed only in Cariprazine cell, read-out: β-arrestin2 BRET EC50
[9] = intravenous injection, 3 mg/kg, read-out: Peak drug concentration C0 or Cmax
[10] = brain, read-out: 0.5 h brain concentration
[11] = plasma, read-out: 0.5 h plasma concentration
[12] = brain, read-out: 2.0 h brain concentration
[13] = plasma, read-out: 2.0 h plasma concentration
[14] = MK801 0.2 mg/kg + compound 0.0156 mg/kg i.p.
[15] = MK801 0.2 mg/kg + compound 0.0625 mg/kg i.p.
[16] = MK801 0.2 mg/kg + compound 0.25 mg/kg i.p.
[17] = read-out: β-arrestin2 BRET pEC50 ± SEM (converted)
[18] = oral administration, 10 mg/kg, read-out: Peak drug concentration Cmax
[19] = brain, read-out: 4.0 h brain concentration
[20] = plasma, read-out: 4.0 h plasma concentration

SMILES | EC50 (dopamine D2 receptors [1]; [6]) | Emax (dopamine D2 receptors [1]) | EC50 (dopamine D2 receptors [1]; [7]) | EC50 (dopamine D2 receptors [2]; [8]) | Cmax [3, 9] | half-life ([3]; oral administration, 10 mg/kg) | concentration at 0.5 h [4, 10] | concentration at 0.5 h [4, 11] | concentration at 2 h [4, 12] | concentration at 2 h [4, 13] | Emax (dopamine D2 receptors [2]) | Vd ([3]; intravenous injection, 3 mg/kg) | AUC(0-t) ([3]; intravenous injection, 3 mg/kg) | clearance ([3]; intravenous injection, 3 mg/kg) | half-life ([3]; intravenous injection, 3 mg/kg) | MRT ([3]; intravenous injection, 3 mg/kg) | AUC(0-t) ([3]; oral administration, 10 mg/kg) | bioavailability ([3]; oral administration, 10 mg/kg) | MRT ([3]; oral administration, 10 mg/kg) | Cmax [3, 18] | further results
COc1cccc2c3c(oc12)CN(CCCCOc1ccc2ccc(=O)[nH]c2c1)CC3 [I-A1, 7-(4-(8-methoxy-3,4-dihydrobenzofuro[2,3-c]pyridin-2(1H)-yl)butoxy)quinolin-2(1H)-one] | 23.4 nM | 55% | 48.8 nM | 27.7 nM | 1330 ± 117 ng/mL | 3.91 ± 0.3 h | 1110 ± 43 ng/mL | 2220 ± 447 ng/mL | 236 ± 25 ng/mL | 397 ± 26.3 ng/mL |  |  |  |  |  |  |  |  |  |  | β-arrestin2 BRET pEC50 ± SEM (dopamine D2 receptors [2]): (7.62 ± 0.17); Area under the drug-time curve AUC0-t ([3]; intravenous injection, 3 mg/kg): 2991 ± 212 ng·h/mL; Clearance CL ([3]; intravenous injection, 3 mg/kg): 16.7 ± 1.12 mL/min/kg; Elimination half-life t1/2 ([3]; intravenous injection, 3 mg/kg): 3.48 ± 0.1 h; Area under the drug-time curve AUC0-t ([3]; oral administration, 10 mg/kg): 8916 ± 3642 ng·h/mL; Bioavailability F ([3]; oral administration, 10 mg/kg): 88.8 ± 36%; Peak drug concentration Cmax ([3]; oral administration, 10 mg/kg): 1555 ± 362 ng/mL; Time to peak concentration tmax ([3]; oral administration, 10 mg/kg): 0.50 ± 0 h; Distance travelled in 45 minutes [5, 14]: 9023 cm; Distance travelled in 45 minutes [5, 15]: 10706 cm; Distance travelled in 45 minutes [5, 16]: 3630 cm; inhibition of MK801-induced hyperlocomotion in mice (in words) [5]: significantly inhibit
COc1cccc2c3c(oc12)CN(CC[C@H]1CC[C@H](NC(=O)N(C)C)CC1)CC3 [I-A12, 3-(trans-4-(2-(8-methoxy-3,4-dihydrobenzofuro[2,3-c]pyridin-2(1H)-yl)ethyl)cyclohexyl)-1,1-dimethylurea] |  | 70% | 1.38 nM | 10.7 nM | 824 ± 299 ng/mL | 3.58 ± 0.5 h | 1400 ± 220 ng/mL | 830 ± 119 ng/mL | 455 ± 61 ng/mL | 202 ± 56.2 ng/mL | 108% | 9.14 ± 1.5 L/kg | 1100 ± 215 ng·h/mL | 45.4 ± 7.9 mL/min/kg | 4.14 ± 0.7 h | 3.36 ± 0.2 h | 5660 ± 2660 ng·h/mL | 151 ± 71% | 4.42 ± 0.66 h | 963 ± 322 ng/mL | EC50 (dopamine D2 receptors [2]; [17]): 8.13 nM; Tmax ([3]; oral administration, 10 mg/kg): 0.833 ± 1 h; Kp at 0.5 h [4]: 1.69; Kp at 2 h [4]: 2.26; Distance travelled in 45 minutes [5, 14]: 12729 cm; Distance travelled in 45 minutes [5, 15]: 5648 cm; Distance travelled in 45 minutes [5, 16]: 2267 cm; inhibition of MK801-induced hyperlocomotion in mice (in words) [5]: significantly inhibit
COc1cccc2c1cc1n2CCN(CCCCOc2ccc3ccc(=O)[nH]c3c2)C1 [I-C1, 7-(4-(9-methoxy-3,4-dihydropyrazino[1,2-a]indol-2(1H)-yl)butoxy)quinolin-2(1H)-one] | 6.31 nM | 72% | 7.94 nM | 220 nM | 3310 ± 349 ng/mL | 7.36 ± 4.2 h | 1940 ± 63 ng/mL | 4060 ± 367 ng/mL | 732 ± 56 ng/mL | 1100 ± 89 ng/mL | 117% | 2.16 ± 0.1 L/kg | 4970 ± 751 ng·h/mL | 10.1 ± 1.4 mL/min/kg | 3.63 ± 0.7 h | 3.58 ± 0.3 h | 8140 ± 2050 ng·h/mL | 48.8% | 10 ± 6.5 h | 1150 ± 198 ng/mL | Tmax ([3]; oral administration, 10 mg/kg): 0.25 h; AUC brain ([4]; brain): 3385 ng·h/mL; Kp at 0.5 h [4]: 0.478; Kp at 2 h [4]: 0.663; Kp at 4 h [4]: 0.541; Kp [4]: 0.538; concentration at 4 h [4, 19]: 161 ± 55 ng/mL; concentration at 4 h [4, 20]: 297 ± 106 ng/mL; AUC ([4]; plasma): 6290 ng·h/mL
COc1cccc2c1cc1n2CCN(CCCCOc2ccc3c(c2)NC(=O)CC3)C1 [I-C2, 7-(4-(9-methoxy-3,4-dihydropyrazino[1,2-a]indol-2(1H)-yl)butoxy)-3,4-dihydroquinolin-2(1H)-one] | 44.7 nM | 81% | 46.3 nM | 122 nM | 3340 ± 629 ng/mL | 4.09 ± 1.6 h | 2800 ± 208 ng/mL | 3280 ± 456 ng/mL | 1260 ± 279 ng/mL | 1510 ± 545 ng/mL | 115% | 1.51 ± 0.3 L/kg | 2790 ± 842 ng·h/mL | 19.1 ± 6.8 mL/min/kg | 1.79 ± 1.1 h | 1.38 ± 0.3 h | 7730 ± 467 ng·h/mL | 82.4 ± 5% | 5.46 ± 0.09 h | 1310 ± 701 ng/mL | EC50 (dopamine D2 receptors [2]; [17]): 66.1 nM; Tmax ([3]; oral administration, 10 mg/kg): 0.33 ± 0.14 h; AUC brain ([4]; brain): 5561 ng·h/mL; Kp at 0.5 h [4]: 0.855; Kp at 2 h [4]: 0.834; Kp at 4 h [4]: 0.931; Kp [4]: 0.853; concentration at 4 h [4, 19]: 599 ± 54 ng/mL; concentration at 4 h [4, 20]: 558 ± 100 ng/mL; AUC ([4]; plasma): 6520 ng·h/mL
